Measured values: paper PMC6207662, “Postprandial glycaemia-lowering effect of a green tea cultivar Sunrouge and cultivar-specific metabolic profiling for determining bioactivity-related ingredients” (Scientific Reports, 2018)

Key:
[1] = molecular target: T1, α-Glucosidase from Saccharomyces cerevisiae (Saccharomyces cerevisiae, UniProt P53341); test: Assay of α-glucosidase activity (cell-free, QuantiChrom kit); type: biochemical; settings: for order of α-glucosidase inhibitory rate: 10 μM, n=3, Supplementary Fig. S4; for IC50: cell-free system; for enhancement of α-glucosidase inhibitory ability by O-methylation (IC50 ratio non-methylated/methylated): IC50 of parent catechin / IC50 of its 3”-O-methylated form
T1 construct: purchased Sigma-Aldrich
T1 sequence (P53341 whole entry): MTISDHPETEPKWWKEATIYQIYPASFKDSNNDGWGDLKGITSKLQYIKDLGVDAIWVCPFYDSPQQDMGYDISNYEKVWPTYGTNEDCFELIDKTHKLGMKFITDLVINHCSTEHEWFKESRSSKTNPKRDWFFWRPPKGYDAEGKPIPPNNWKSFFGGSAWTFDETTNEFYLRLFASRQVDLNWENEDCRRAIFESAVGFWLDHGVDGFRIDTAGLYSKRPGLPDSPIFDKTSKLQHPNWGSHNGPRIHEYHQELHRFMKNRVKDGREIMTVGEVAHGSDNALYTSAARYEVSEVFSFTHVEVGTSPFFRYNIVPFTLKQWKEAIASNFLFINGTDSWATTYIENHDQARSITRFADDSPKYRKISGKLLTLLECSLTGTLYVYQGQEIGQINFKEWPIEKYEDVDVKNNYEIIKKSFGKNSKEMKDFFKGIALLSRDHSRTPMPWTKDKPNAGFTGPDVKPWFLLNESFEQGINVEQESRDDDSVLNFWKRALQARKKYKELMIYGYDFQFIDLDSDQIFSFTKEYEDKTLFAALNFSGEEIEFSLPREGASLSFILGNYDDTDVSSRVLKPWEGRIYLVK
Experimental: α-Glucosidase from Saccharomyces cerevisiae (Sigma-Aldrich) was dissolved in phosphate buffered saline (PBS) at a concentration of 0.01 mg/mL. Tea extracts were diluted 1:10 with distilled water. Tea extracts or various concentrations of flavonoids in DMSO were mixed 1:1 with the α-glucosidase solution. The α-glucosidase activity of the mixture was measured by the QuantiChrom™ α-Glucosidase Assay Kit (Bio Assay Systems, Hayward, CA, USA) according to the manufacturer’s instructions.

[2] = tested on: postprandial blood glucose level; test: Starch tolerance test in mice (postprandial blood glucose); type: in vivo, mice (male ICR); settings: compound 500 mg/kg b.w. with soluble starch 2,000 mg/kg b.w., Supplementary Fig. S5
Experimental: Nine-week-old male ICR mice were purchased from Kyudo Company (Saga, Japan). All mice were housed and maintained in a temperature and humidity controlled room with a 12-h light-dark cycle (light from 8 am to 8 pm). All animal studies were performed in accordance with the law (protocol no. 105) and notification (protocol no. 6) of the Japanese government for the welfare of experimental animals. The study protocol was approved by the Animal Care and Use Committee, Kyushu University (Kyushu University, Scientific Research Promotion Division). Mice were randomly divided into 3 groups (n = 8) with equivalent mean body weight and starved overnight. Mice were orally administered with soluble starch (2,000 mg/kg b.w.) (Wako, Osaka, Japan) alone, or in combination with a test sample. All solutions were made in distilled water. Blood was sampled from the tail vein at before (t = 0), 30, 60, 90, 120 and 150 min after administration. The blood glucose level was measured with the Medisafe Mini GR-102 (Terumo Co., Tokyo, Japan) and the areas under the curves (AUC) were calculated.

Compound | order of α-glucosidase inhibitory rate [1] | IC50 [1] | elevation of postprandial blood glucose level in oral starch tolerance test [2] | enhancement of α-glucosidase inhibitory ability by O-methylation (IC50 ratio non-methylated/methylated) [1] | effect on the activity of α-glucosidase ([1]; Supplementary Fig. S2)
COc1cc(C(=O)O[C@@H]2Cc3c(O)cc(O)cc3O[C@@H]2c2ccc(O)c(O)c2)cc(O)c1O [ECG3”Me, epicatechin-3-O-(3-O-methyl) gallate] | EGCG3”Me > EGCG > ECG3”Me > ECG | 14.7 µM |  |  | 
O=c1c(O)c(-c2cc(O)c(O)c(O)c2)oc2cc(O)cc(O)c12 [Myr, myricetin] |  | 4.4 µM | suppressed the elevation of postprandial blood glucose level |  | 
epigallocatechin-3-O-(3-O-methyl) gallate [EGCG3”Me] | EGCG3”Me > EGCG > ECG3”Me > ECG | 8.1 µM |  |  | 
Oc1cc(O)c2cc(O)c(-c3cc(O)c(O)c(O)c3)[o+]c2c1 [Del, delphinidin] |  | 31.6 µM |  |  | 
epicatechin-3-O-gallate [ECG] | EGCG3”Me > EGCG > ECG3”Me > ECG | 61.1 µM |  | 4.2 fold | 
OC[C@H]1O[C@@H](Oc2cc3c(O)cc(O)cc3[o+]c2-c2cc(O)c(O)c(O)c2)[C@H](O)[C@@H](O)[C@@H]1O [Del-glu, delphinidin-3-O-glucoside] |  | > 100 µM |  |  | 
O=c1c(OC2O[C@H](CO)[C@@H](O)[C@H](O)[C@H]2O)c(-c2cc(O)c(O)c(O)c2)oc2cc(O)cc(O)c12 (some centres unmarked) [Myr-glu, myricetin-3-O-glucoside] |  | > 100 µM |  |  | 
epigallocatechin-3-O-gallate [EGCG] | EGCG3”Me > EGCG > ECG3”Me > ECG | 13.3 µM | suppressed the elevation of postprandial blood glucose level | 1.6 fold | 
CCNC(=O)CC[C@H](N)C(=O)O [theanine, L-theanine] |  |  |  |  | elevated the activity of α-glucosidase
